Patent publication US11236081B2, “Crystalline salts of corydalmine” (priority 2018, dated 2022)
Like-named read-outs stand apart in the source and are kept apart here.

Assay: Pharmacokinetic study: plasma concentration and plasma PK parameters after IV/PO dosing (LC-MS/MS, WinNonlin)
Type: in vivo, Male SD Rat
Conditions: male SD rat, plasma; for half-life: read-out: T1/2, Mean (converted)
Excerpt: Pharmacokinetic and Brain Penetration Study
Dose formulation processing during dosing: The dose formulations will be kept at room temperature.
Concentrations of Test Article in the plasma samples will be analyzed using a LC-MS/MS method.
WinNonlin (Phoenix™, version 6.1) or other similar software will be used for pharmacokinetic calculations. The following pharmacokinetic parameters will be calculated, whenever possible from the plasma concentration versus time data:
IV administration: T1/2, C0, AUClast, AUCinf, MRTinf, Cl, Vss, Number of Points for Regression.
PO administration: T1/2, Cmax, Tmax, MRTinf, AUCinf, AUClast, F %, Number of Points for Regression.
The pharmacokinetic data will be described using descriptive statistics such as mean, standard deviation.

[1] = PO 10 mg/kg (equal to freebase), mean n=3, vehicle 20% HP-β-CD in water (POA, freebase) or water (salts)
[2] = male, Sprague-Dawley, rat, iv, 3 mg/kg, IV 3 mg/kg, individual rats, read-out: concentration in plasma
[3] = male, Sprague-Dawley, rat, iv, 3 mg/kg, IV 3 mg/kg, mean n=3, read-out: concentration in plasma, Mean
[4] = male, Sprague-Dawley, rat, po, 10 mg/kg, PO 10 mg/kg (equal to freebase), mean n=3, vehicle 20% HP-β-CD in water (POA, freebase) or water (salts), read-out: concentration in plasma, Mean
[5] = male, Sprague-Dawley, rat, po, 10 mg/kg, PO 10 mg/kg (equal to freebase), individual rats, vehicle 20% HP-β-CD in water (POA, freebase) or water (salts), read-out: concentration in plasma

COc1cc2c(cc1OC)[C@@H]1Cc3ccc(O)c(OC)c3CN1CC2 [Compound (1), l-corydalmine]
AUClast/D, Mean [1]: 78.8 kg·ng·h/mL/mg | AUC—% Extrap_obs, Mean [1]: 19.8% | AUC(0-inf) (male, SD, rat, iv, 3 mg/kg, IV 3 mg/kg, individual rats, read-out: AUCInf): 950 ng·h/mL | AUC(0-t) (male, SD, rat, iv, 3 mg/kg, IV 3 mg/kg, individual rats, read-out: AUClast): 937 ng·h/mL | MRT inf (male, SD, rat, iv, 3 mg/kg, IV 3 mg/kg, individual rats, read-out: MRTInf_obs): 1.09 h | AUC(0-inf) (male, SD, rat, iv, 3 mg/kg, IV 3 mg/kg, mean n=3, read-out: AUCInf, Mean): 1020 ng·h/mL | AUC(0-t) (male, SD, rat, iv, 3 mg/kg, IV 3 mg/kg, mean n=3, read-out: AUClast, Mean): 1000 ng·h/mL | MRT inf (male, SD, rat, iv, 3 mg/kg, IV 3 mg/kg, mean n=3, read-out: MRTInf_obs, Mean): 1.23 h | AUC(0-inf) (male, SD, rat, po, 10 mg/kg, PO 10 mg/kg (equal to freebase), individual rats, vehicle 20% HP-β-CD in water (POA, freebase) or water (salts), read-out: AUCInf): 1490 ng·h/mL | AUC(0-t) (male, SD, rat, po, 10 mg/kg, PO 10 mg/kg (equal to freebase), individual rats, vehicle 20% HP-β-CD in water (POA, freebase) or water (salts), read-out: AUClast): 615 ng·h/mL | Tmax (male, SD, rat, po, 10 mg/kg, PO 10 mg/kg (equal to freebase), individual rats, vehicle 20% HP-β-CD in water (POA, freebase) or water (salts), read-out: Tmax): 0.5 h | AUC(0-inf) (male, SD, rat, po, 10 mg/kg, PO 10 mg/kg (equal to freebase), mean n=3, vehicle 20% HP-β-CD in water (POA, freebase) or water (salts), read-out: AUCInf, Mean): 1080 ng·h/mL | AUC(0-t) (male, SD, rat, po, 10 mg/kg, PO 10 mg/kg (equal to freebase), mean n=3, vehicle 20% HP-β-CD in water (POA, freebase) or water (salts), read-out: AUClast, Mean): 788 ng·h/mL | Cmax (male, SD, rat, po, 10 mg/kg, PO 10 mg/kg (equal to freebase), mean n=3, vehicle 20% HP-β-CD in water (POA, freebase) or water (salts), read-out: Cmax, Mean): 202 ng/mL | MRT inf (male, SD, rat, po, 10 mg/kg, PO 10 mg/kg (equal to freebase), mean n=3, vehicle 20% HP-β-CD in water (POA, freebase) or water (salts), read-out: MRTInf_obs, Mean): 7.84 h | half-life (male, SD, rat, po, 10 mg/kg, PO 10 mg/kg (equal to freebase), mean n=3, vehicle 20% HP-β-CD in water (POA, freebase) or water (salts)): 4.9 h | Tmax (male, SD, rat, po, 10 mg/kg, PO 10 mg/kg (equal to freebase), mean n=3, vehicle 20% HP-β-CD in water (POA, freebase) or water (salts), read-out: Tmax, Mean): 0.417 h | concentration at 0.083 h [2]: 1420 ng/mL | concentration at 0.083 h [3]: 1480 ng/mL | concentration at 0.25 h [2]: 974 ng/mL | concentration at 0.25 h [3]: 976 ng/mL | concentration at 0.5 h [2]: 401 ng/mL | concentration at 0.5 h [3]: 478 ng/mL | concentration at 1 h [2]: 192 ng/mL | concentration at 1 h [3]: 191 ng/mL | concentration at 2 h [2]: 63.3 ng/mL | concentration at 2 h [3]: 68.4 ng/mL | concentration at 4 h [3]: 30.6 ng/mL | concentration at 8 h [3]: 6.38 ng/mL | concentration at 24 h [2]: 0.5 ng/mL | C0 (male, Sprague-Dawley, rat, iv, 3 mg/kg, IV 3 mg/kg, individual rats, read-out: C0): 1710 ng/mL | half-life (male, Sprague-Dawley, rat, iv, 3 mg/kg, IV 3 mg/kg, mean n=3): 2.73 h | concentration at 0.25 h [4]: 191 ng/mL | concentration at 0.5 h [4]: 197 ng/mL | concentration at 1 h [5]: 109 ng/mL | concentration at 1 h [4]: 125 ng/mL | concentration at 2 h [5]: 75.1 ng/mL | concentration at 2 h [4]: 66.7 ng/mL | concentration at 4 h [5]: 66.3 ng/mL | concentration at 4 h [4]: 51.2 ng/mL | concentration at 8 h [5]: 68.7 ng/mL | concentration at 8 h [4]: 49.9 ng/mL | concentration at 24 h (male, Sprague-Dawley, rat, po, 10 mg/kg, PO 10 mg/kg, mean (one rat BLOQ), vehicle 20% HP-β-CD in water (POA), read-out: concentration in plasma, Mean): 0.574 ng/mL
